Measurements taken from US5328900A, “Anti-thrombotic peptide and pseudopeptide derivatives” (Rhone-Poulenc Rorer Pharmaceuticals Inc., priority 1992, dated 1994).
Where a SMILES comes first, the peptide text is derived from it. [ ]: non-standard residue; d: D form. Aze = O=C(O)[C@@H]1CCN1; Inp = O=C(O)C1CCNCC1

Columns and labels:
[1] = biological target: T1, fibrinogen binding to thrombin-stimulated platelets (Homo sapiens, UniProt P05106+P08514); experiment: Inhibition of radiolabeled (125I) fibrinogen binding assay
T1 construct: endogenous in cells; host or cells: washed platelets stimulated with human alpha-thrombin
T1 sequence (P08514 32-887 limits assumed): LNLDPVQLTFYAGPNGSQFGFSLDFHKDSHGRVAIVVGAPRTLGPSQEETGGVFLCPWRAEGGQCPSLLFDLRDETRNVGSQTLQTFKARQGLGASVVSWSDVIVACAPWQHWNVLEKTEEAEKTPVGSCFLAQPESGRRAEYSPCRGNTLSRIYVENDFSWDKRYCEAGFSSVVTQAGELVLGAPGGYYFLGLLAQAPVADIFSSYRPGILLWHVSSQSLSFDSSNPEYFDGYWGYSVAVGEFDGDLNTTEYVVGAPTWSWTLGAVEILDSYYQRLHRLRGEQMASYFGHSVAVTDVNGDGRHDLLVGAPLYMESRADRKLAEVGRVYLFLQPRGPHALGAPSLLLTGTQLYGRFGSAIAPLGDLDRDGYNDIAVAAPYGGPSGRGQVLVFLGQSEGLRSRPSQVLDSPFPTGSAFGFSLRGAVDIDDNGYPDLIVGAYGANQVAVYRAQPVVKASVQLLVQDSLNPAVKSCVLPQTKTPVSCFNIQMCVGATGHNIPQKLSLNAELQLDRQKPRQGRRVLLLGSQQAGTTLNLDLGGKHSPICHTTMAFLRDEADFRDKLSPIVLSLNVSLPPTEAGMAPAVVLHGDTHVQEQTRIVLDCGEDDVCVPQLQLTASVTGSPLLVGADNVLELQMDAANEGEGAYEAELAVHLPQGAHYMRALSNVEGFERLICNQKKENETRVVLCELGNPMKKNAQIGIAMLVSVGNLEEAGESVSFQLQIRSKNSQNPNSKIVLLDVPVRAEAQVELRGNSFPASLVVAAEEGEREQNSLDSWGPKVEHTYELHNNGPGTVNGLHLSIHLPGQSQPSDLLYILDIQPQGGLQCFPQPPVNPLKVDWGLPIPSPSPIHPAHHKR
T1 sequence (P08514 891-1039 partner limits assumed): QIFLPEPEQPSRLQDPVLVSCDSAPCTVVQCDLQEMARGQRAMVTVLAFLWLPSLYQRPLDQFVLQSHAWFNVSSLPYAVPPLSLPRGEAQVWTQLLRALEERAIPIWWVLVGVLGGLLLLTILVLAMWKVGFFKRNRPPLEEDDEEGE
T1 sequence (P05106 27-788): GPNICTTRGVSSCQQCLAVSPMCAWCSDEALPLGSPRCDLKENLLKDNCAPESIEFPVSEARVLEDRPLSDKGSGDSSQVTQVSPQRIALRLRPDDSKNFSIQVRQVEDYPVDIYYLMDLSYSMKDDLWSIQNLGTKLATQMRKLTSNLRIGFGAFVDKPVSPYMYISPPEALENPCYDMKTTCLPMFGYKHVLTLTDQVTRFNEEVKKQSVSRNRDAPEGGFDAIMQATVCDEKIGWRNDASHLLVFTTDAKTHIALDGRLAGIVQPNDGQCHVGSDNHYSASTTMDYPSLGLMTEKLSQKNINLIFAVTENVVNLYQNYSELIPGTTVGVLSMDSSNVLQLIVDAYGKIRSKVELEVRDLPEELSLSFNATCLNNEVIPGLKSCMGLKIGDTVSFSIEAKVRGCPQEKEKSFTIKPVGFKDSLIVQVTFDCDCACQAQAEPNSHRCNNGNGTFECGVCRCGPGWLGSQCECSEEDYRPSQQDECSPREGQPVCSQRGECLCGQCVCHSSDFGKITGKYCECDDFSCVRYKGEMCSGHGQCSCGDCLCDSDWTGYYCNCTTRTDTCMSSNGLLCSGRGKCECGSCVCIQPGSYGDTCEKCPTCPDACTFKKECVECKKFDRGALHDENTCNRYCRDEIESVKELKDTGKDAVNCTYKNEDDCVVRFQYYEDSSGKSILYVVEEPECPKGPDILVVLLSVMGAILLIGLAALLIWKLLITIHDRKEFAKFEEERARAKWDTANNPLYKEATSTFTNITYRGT
Protocol: I. Inhibition of Radiolabeled (^125 I) Fibrinogen Binding Assay, which is essentially based on the method described in Proc. Natl. Acad. Sci. USA Vol. 83, pp. 5708-5712, August 1986, and is as follows.
Platelets are washed free of plasma constituents by the albumin density-gradient technique. In each experimental mixture platelets in modified Tyrode's buffer are stimulated with human α-thrombin at 22°-25° C. for 10 minutes (3.125×10" platelets per liter and thrombin at […]). Hirudin is then added at a 25-fold excess for 5 minutes before addition of the radiolabeled ligand and any competing ligand. After these additions, the final platelet count in the mixture is 1×10"/liter. After incubation for an additional 30 minutes at 22°-25° C., bound and free ligand are separated by centrifuging 50 μl of the mixture through 300 μl of 20% sucrose at 12,000×g for 4 minutes. The platelet pellet is then separated from the rest of the mixture to determine platelet-bound radioactivity. Nonspecific binding is measured in mixtures containing an excess of unlabeled ligand. When binding curves are analyzed by Scatchard analysis, nonspecific binding is derived as a fitted parameter from the binding isotherm by means of a computerized program. […]

[2] = tested on: Human platelets; experiment: Inhibition of fibrinogen-mediated platelet aggregation; format: cell-based; settings: for IC50: thrombin-activated human platelets, rate of aggregation
Protocol: II. Inhibition of Fibrinogen-Mediated Platelet Aggregation, which is essentially based on the method described in Blood, Vol. 66, No. 4, October 1985, pp. 946-952, and is as follows.
Human platelets were isolated from freshly drawn whole blood and were suspended in 0.14 mol/L NaCl, 2.7 mmol/L […], 12 mmol/L NaHCO3, 0.42 mmol/L Na2 HPO4, 0.55 mmol/L glucose, and 5 mmol/L Hepes, pH 7.35 at 2×10^8 platelets/ml. The suspension was incubated at 37° C. An aliquot of 0.4 ml of platelet suspension was activated by human thrombin at a final concentration of 2 μg/ml of thrombin for one minute. After one minute the reaction was stopped by a thrombin inhibitor. Serial dilution of the compound being tested was then added to the activated platelet, the reaction was allowed to proceed for one minute, followed by the addition of human fibrinogen at a final concentration of […] of fibrinogen. Platelet aggregation was then recorded by an aggregometer. Rate of aggregation was used to calculate IC50.

| Structure (SMILES) | IC50 ([1]; thrombin-stimulated washed platelets, 125I-fibrinogen 0.176 μmol/liter) | Inhibition of Fibrinogen Mediated Platelet Aggregation % inhibition at 25 μM [2] | IC50 [2] | Inhibition of 125I-fibrinogen binding, extent at 25 μM ([1]; 25 μM) |
| --- | --- | --- | --- | --- |
| CC(C)[C@H](NC(=O)[C@H](CC(=O)O)NC(=O)[C@@H]1CCN1C(=O)C1CCNCC1)C(=O)O [N-[2(S)-1-(piperidin-4-yl-carbonyl)azetidin-2-yl-carbonyl]-L-aspartyl-L-valine] (H-[Inp][Aze]DV-OH) | > 64 µM | 47% | 29.6 µM | – |
| CC(C)[C@H](NC(=O)[C@H](CC(=O)O)NC(=O)[C@@H]1CCN1C(=O)C1CCN(C(=N)N)CC1)C(=O)O [N-[2(S)-1-(amidinopiperidin-4-yl-carbonyl)-azetidin-2-yl-carbonyl]-L-aspartyl-L-valine] | – | 15% | > 200 µM | 15% |
